Converted amounts (≈) assume the structure as drawn.
Columns and labels:
Mycobacterium leprae [1] = test: Anti-leprotic activity against Mycobacterium leprae infected in BALB/c weanling mouse assessed as bacteria killing at 100 mg/kg, ip administrated for 60 days and measured after 1 year by most probable number technique analysis relative to control; format: functional
Mycobacterium leprae [2] = test: Anti-leprotic activity against Mycobacterium leprae infected in BALB/c weanling mouse assessed as bacteria killing at 100 mg/kg, ip administrated for 60 days and measured after 1 year by Spearman-Karber technique analysis relative to control; format: functional
Mycobacterium leprae [3] = test: Anti-leprotic activity against rifampicin-susceptible Mycobacterium leprae primary cultures at 4 weeks assessed as [3H]thymidine uptake per 5 times 10^7 cells at 0.2 mg/L incubated for 24 hrs (reference value: 1.05 +/- 0.16 pmol); format: functional
Mycobacterium leprae [4] = test: Anti-leprotic activity against rifampicin-susceptible Mycobacterium leprae subcultures at 4 weeks assessed as ATP level per 10^7 cells at 0.025 mg/L measured by bioluminescence assay (reference value: 425 +/- 64 pg); format: functional
Mycobacterium leprae [5] = test: Anti-leprotic activity against rifampicin-susceptible Mycobacterium leprae primary cultures at 4 weeks assessed as ATP level per 10^7 cells at 0.1 mg/L measured by bioluminescence assay (reference value: 332 +/- 46 pg); format: functional
Mycobacterium leprae [6] = test: Anti-leprotic activity against rifampicin-susceptible Mycobacterium leprae subcultures at 4 weeks assessed as ATP level per 10^7 cells at 0.1 mg/L measured by bioluminescence assay (reference value: 425 +/- 64 pg); format: functional
Mycobacterium leprae [7] = test: Anti-leprotic activity against rifampicin-susceptible Mycobacterium leprae primary cultures at 4 weeks assessed as [3H]thymidine uptake per 5 times 10^7 cells at 0.05 mg/L incubated for 24 hrs (reference value: 1.05 +/- 0.16 pmol); format: functional
Mycobacterium leprae [8] = test: Anti-leprotic activity against rifampicin-susceptible Mycobacterium leprae primary cultures at 4 weeks assessed as [3H]thymidine uptake per 5 times 10^7 cells at 0.1 mg/L incubated for 24 hrs (reference value: 1.05 +/- 0.16 pmol); format: functional
Mycobacterium leprae [9] = test: Anti-leprotic activity against rifampicin-susceptible Mycobacterium leprae primary cultures at 4 weeks assessed as ATP level per 10^7 cells at 0.05 mg/L measured by bioluminescence assay (reference value: 332 +/- 46 pg); format: functional
Mycobacterium leprae [10] = test: Anti-leprotic activity against rifampicin-susceptible Mycobacterium leprae subcultures at 4 weeks assessed as [3H]thymidine uptake per 5 times 10^7 cells at 0.025 mg/L incubated for 24 hrs (reference value: 1.41 +/- 0.20 pmol); format: functional
Mycobacterium leprae [11] = test: Anti-leprotic activity against rifampicin-susceptible Mycobacterium leprae subcultures at 4 weeks assessed as [3H]thymidine uptake per 5 times 10^7 cells at 0.05 mg/L incubated for 24 hrs (reference value: 1.41 +/- 0.20 pmol); format: functional
Mycobacterium leprae [12] = test: Anti-leprotic activity against rifampicin-susceptible Mycobacterium leprae primary cultures at 4 weeks assessed as ATP level per 10^7 cells at 0.025 mg/L measured by bioluminescence assay (reference value: 332 +/- 46 pg); format: functional
Mycobacterium leprae [13] = test: Anti-leprotic activity against rifampicin-susceptible Mycobacterium leprae subcultures at 4 weeks assessed as [3H]thymidine uptake per 5 times 10^7 cells at 0.1 mg/L incubated for 24 hrs (reference value: 1.41 +/- 0.20 pmol); format: functional
Mycobacterium leprae [14] = test: Anti-leprotic activity against rifampicin-susceptible Mycobacterium leprae primary cultures at 4 weeks assessed as ATP level per 10^7 cells at 0.2 mg/L measured by bioluminescence assay (reference value: 332 +/- 46 pg); format: functional
Mycobacterium leprae [15] = test: Anti-leprotic activity against rifampicin-susceptible Mycobacterium leprae subcultures at 4 weeks assessed as ATP level per 10^7 cells at 0.05 mg/L measured by bioluminescence assay (reference value: 425 +/- 64 pg); format: functional
Mycobacterium leprae [16] = test: Anti-leprotic activity against rifampicin-susceptible Mycobacterium leprae subcultures at 4 weeks assessed as [3H]thymidine uptake per 5 times 10^7 cells at 0.2 mg/L incubated for 24 hrs (reference value: 1.41 +/- 0.20 pmol); format: functional
Mycobacterium leprae [17] = test: Anti-leprotic activity against rifampicin-susceptible Mycobacterium leprae subcultures at 4 weeks assessed as ATP level per 10^7 cells at 0.2 mg/L measured by bioluminescence assay (reference value: 425 +/- 64 pg); format: functional
Mycobacterium leprae [18] = test: Anti-leprotic activity against rifampicin-susceptible Mycobacterium leprae primary cultures at 4 weeks assessed as [3H]thymidine uptake per 5 times 10^7 cells at 0.025 mg/L incubated for 24 hrs (reference value: 1.05 +/- 0.16 pmol); format: functional
Mycobacterium leprae [19] = test: Anti-leprotic activity against Mycobacterium leprae infected in BALB/c mouse assessed as time delay in bacterial multiplication in footpad at 0.0045 g/100g of diet administered via feed starting 60 or 75 day post infection up to 90 days by Shepard's kinetic method; format: functional
[20] = Selectivity index, ratio of IC50 for African green monkey Vero cells to MIC for antitubercular activity against Mycobacterium tuberculosis H37Rv; format: toxicity; details: Vero cells, read-out: Selectivity Index
[21] = test system: Mycobacterium tuberculosis; test: Antitubercular activity against Mycobacterium tuberculosis H37Rv ATCC 27294 assessed as inhibition of [3H]-thymidine incorporation at 1 ug/ml relative to control; format: functional
[22] = test system: Mycobacterium tuberculosis; test: Antitubercular activity against Mycobacterium tuberculosis H37Rv ATCC 27294 assessed as growth inhibition at 6.25 ug/ml by microplate alamar blue assay relative to control; format: functional
[23] = test system: Mycobacterium tuberculosis; test: Antitubercular activity against Mycobacterium tuberculosis H37Rv ATCC 27294 assessed as inhibition of [3H]-thymidine incorporation; format: functional, organism-based
[24] = test system: Mycobacterium tuberculosis; test: Antitubercular activity against Mycobacterium tuberculosis H37Rv ATCC 27294 assessed as inhibition of [3H]-thymidine incorporation relative to control; format: functional
Staphylococcus aureus = test: Antimicrobial activity against Staphylococcus aureus ATCC 25923 by broth microdilution assay; format: functional
Klebsiella pneumoniae = test: Antimicrobial activity against Klebsiella pneumoniae 700603 by broth microdilution assay; format: functional
Escherichia coli [25] = test: Antimicrobial activity against Escherichia coli ATCC 35218 by broth microdilution assay; format: functional
Pseudomonas aeruginosa = test: Antimicrobial activity against Pseudomonas aeruginosa ATCC 27853 by broth microdilution assay; format: functional
Nakaseomyces glabratus = test: Antifungal activity against Candida glabrata; format: functional
Enterococcus faecalis [26] = test: Antimicrobial activity against Enterococcus faecalis ATCC 51922 by broth microdilution assay; format: functional
[27] = test system: Mycobacterium tuberculosis; test: Antitubercular activity against Mycobacterium tuberculosis H37Rv ATCC 27294 incubated for 7 days by microplate alamar blue assay; format: functional; details: H37Rv ATCC 27294, 168 h
Enterococcus faecalis [28] = test: Antimicrobial activity against Enterococcus faecalis ATCC 29212 by broth microdilution assay; format: functional
Listeria monocytogenes = test: Antimicrobial activity against Listeria monocytogenes ATCC 1911 by broth microdilution assay; format: functional
Escherichia coli [29] = test: Antimicrobial activity against Escherichia coli ATCC 25922 by broth microdilution assay; format: functional

NC[C@H]1O[C@H](O[C@H]2[C@H](O)[C@@H](O[C@H]3O[C@H](CO)[C@@H](O)[C@H](N)[C@H]3O)[C@H](N)C[C@@H]2N)[C@H](O)[C@@H](O)[C@@H]1O [KANAMYCIN]
Activity (Mycobacterium leprae [1]): 99.8%
Activity (Mycobacterium leprae [2]): 99.7%

CCC(C)N1CCN(c2cc(O)c3nc4c5c6c7c(C)c(O)c5c(=O)c(c-4oc3c2)NC(=O)/C(C)=C\C=C\[C@H](C)[C@H](O)[C@@H](C)[C@@H](O)[C@@H](C)[C@H](OC(C)=O)[C@H](C)[C@@H](OC)/C=C/O[C@@](C)(O7)C6=O)CC1 (stereo in doubt; form 2)
Activity (Mycobacterium leprae [3]): 0 pmol
Activity (Mycobacterium leprae [4]): 363 pg
Activity (Mycobacterium leprae [5]): 0 pg
Activity (Mycobacterium leprae [6]): 0 pg
Activity (Mycobacterium leprae [7]): 0.77 pmol
Activity (Mycobacterium leprae [8]): 0 pmol
Activity (Mycobacterium leprae [9]): 233 pg
Activity (Mycobacterium leprae [10]): 0 pmol
Activity (Mycobacterium leprae [11]): 1.28 pmol
Activity (Mycobacterium leprae [12]): 298 pg
Activity (Mycobacterium leprae [13]): 0.76 pmol
Activity (Mycobacterium leprae [14]): 0 pg
Activity (Mycobacterium leprae [15]): 221 pg
Activity (Mycobacterium leprae [16]): 0 pmol
Activity (Mycobacterium leprae [17]): 0 pg
Activity (Mycobacterium leprae [18]): 0.298 pmol

Nc1ccc([S+]([O-])c2ccc(N)cc2)cc1
Time (Mycobacterium leprae [19]): 90 days

c1ccc(Cn2cnc3c(-c4cccs4)ncnc32)cc1
selectivity ratio [20]: > 1.6
inhibition at 1 µg/mL [21]: < 10%
inhibition at 6.25 µg/mL [22]: > 90%

CO[C@H]1/C=C/O[C@@]2(C)Oc3c(C)c(O)c4c(=O)c(c5oc6cc(N7CCN(CC(C)C)CC7)cc(O)c6nc-5c4c3C2=O)NC(=O)/C(C)=C\C=C\[C@H](C)[C@H](O)[C@@H](C)[C@@H](O)[C@@H](C)[C@H](OC(C)=O)[C@@H]1C [RIFALAZIL]
Activity (Mycobacterium leprae [3]): 0 pmol
Activity (Mycobacterium leprae [4]): 211 pg
Activity (Mycobacterium leprae [5]): 0 pg
Activity (Mycobacterium leprae [6]): 0 pg
Activity (Mycobacterium leprae [7]): 0 pmol
Activity (Mycobacterium leprae [8]): 0 pmol
Activity (Mycobacterium leprae [9]): 0 pg
Activity (Mycobacterium leprae [10]): 0.73 pmol
Activity (Mycobacterium leprae [11]): 0 pmol
Activity (Mycobacterium leprae [12]): 227 pg
Activity (Mycobacterium leprae [13]): 0 pmol
Activity (Mycobacterium leprae [14]): 0 pg
Activity (Mycobacterium leprae [15]): 0 pg
Activity (Mycobacterium leprae [16]): 0 pmol
Activity (Mycobacterium leprae [17]): 0 pg
Activity (Mycobacterium leprae [18]): 0.72 pmol

OC[C@H]1O[C@@H](n2cnc3c(-c4ccccc4)ncnc32)[C@H](O)[C@@H]1O
IC50 [23]: 0.4 µg/mL (≈ 1.22 µM)
inhibition (INH) [24]: 99%
inhibition at 6.25 µg/mL [22]: 14%

Fc1ccc(/C=N/NC(=S)Nc2ccc(C(F)(F)F)cc2)cc1
MIC (Staphylococcus aureus): 100 µg/mL (≈ 293 µM)
MIC (Klebsiella pneumoniae): 800 µg/mL (≈ 2340 µM)
MIC (Escherichia coli [25]): 1600 µg/mL (≈ 4690 µM)
MIC (Pseudomonas aeruginosa): 1600 µg/mL (≈ 4690 µM)
MIC (Nakaseomyces glabratus): 200 µg/mL (≈ 586 µM)
MIC (Enterococcus faecalis [26]): 1600 µg/mL (≈ 4690 µM)
MIC [27]: 400 µg/mL (≈ 1170 µM)
MIC (Enterococcus faecalis [28]): 200 µg/mL (≈ 586 µM)
MIC (Listeria monocytogenes): 1600 µg/mL (≈ 4690 µM)
MIC (Escherichia coli [29]): 400 µg/mL (≈ 1170 µM)

— ChEMBL document CHEMBL4613212, “Insights of synthetic analogues of anti-leprosy agents” (Bioorg Med Chem, 2019)
